{
  "source": "the supplement of paper PMC10627819",
  "key": {"S. pneumoniae D39V": {"test_system": "S. pneumoniae D39V", "assay": "Bliss interaction score (quartile over a dose matrix) (fitness difference); higher = more antagonism (negative = synergy)", "summary_of_the_method": "(§1)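 The Bliss score is observed minus expected fitness under the product model, reported as quartiles over technical, biological and donor/recipient replicates. Fitness is the OD595 at entry into stationary phase divided by the plate's robust no-drug mean and capped at 1. Single-drug fitness was inferred from combination data.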"}, "S. aureus Newman": {"test_system": "S. aureus Newman", "assay": "Bliss interaction score (quartile over a dose matrix) (fitness difference); higher = more antagonism (negative = synergy)", "summary_of_the_method": "as §1"}, "B. subtilis 168 [1]": {"test_system": "B. subtilis 168", "assay": "Bliss interaction score (quartile over a dose matrix) (fitness difference); higher = more antagonism (negative = synergy)", "summary_of_the_method": "as §1"}, "S. aureus DSM 20231 [2]": {"test_system": "S. aureus DSM 20231", "assay": "Bliss interaction score (quartile over a dose matrix) (fitness difference); higher = more antagonism (negative = synergy)", "summary_of_the_method": "as §1"}, "B. subtilis 168 [3]": {"test_system": "B. subtilis 168", "assay": "fitness (endpoint OD595 vs no drug) (fraction); higher = more growth", "summary_of_the_method": "(§2)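 Volumes were 30 µl per well, or 55 µl for S. pneumoniae, in 384-well plates inoculated at OD595 0.01. Media were TSB, LB Lennox or CY at 37 °C, and OD595 was read every 30 min for 14 h with first-reading background subtraction. Fitness is the ratio of optical density at stationary-phase entry to the robust mean of no-drug controls. That ratio is capped at 1.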"}, "S. aureus DSM 20231 [4]": {"test_system": "S. aureus DSM 20231", "assay": "fitness (endpoint OD595 vs no drug) (fraction); higher = more growth", "summary_of_the_method": "as §2"}, "[5]": {"details": "first compound 0.25 µg/mL, partner 0.125 µg/mL"}, "[6]": {"details": "first compound 0.25 µg/mL, partner 0.25 µg/mL"}, "[7]": {"details": "first compound 0.25 µg/mL, partner 0.5 µg/mL"}, "[8]": {"details": "first compound 0.5 µg/mL, partner 0.25 µg/mL"}, "[9]": {"details": "first compound 0.5 µg/mL, partner 0.5 µg/mL"}},
  "data": [
    {"smiles": "CC(=O)NC[C@H]1CN(c2ccc(N3CCOCC3)c(F)c2)C(=O)O1", "note": "[Linezolid] + COc1cc(Cc2cnc(N)nc2N)cc(OC)c1OC [Trimethoprim]", "values": [
      {"measurement": "Bliss interaction score", "setting": "S. pneumoniae D39V", "value": -0.161},
      {"measurement": "Bliss interaction score", "setting": "S. aureus Newman", "value": 0.096},
      {"measurement": "Bliss interaction score", "setting": "B. subtilis 168 [1]", "value": 0.0503},
      {"measurement": "Bliss interaction score", "setting": "S. aureus DSM 20231 [2]", "value": 0.129},
      {"measurement": "fitness", "setting": "B. subtilis 168 [3]; first compound 0.0625 µg/mL, partner 0.125 µg/mL, one replicate", "value": 0.455},
      {"measurement": "fitness", "setting": "B. subtilis 168 [3]; first compound 0.0625 µg/mL, partner 0.25 µg/mL, one replicate", "value": 0.379},
      {"measurement": "fitness", "setting": "B. subtilis 168 [3]; first compound 0.0625 µg/mL, partner 0.5 µg/mL, one replicate", "value": 0.365},
      {"measurement": "fitness", "setting": "B. subtilis 168 [3]; first compound 0.125 µg/mL, partner 0.1 µg/mL, one replicate", "value": 0.661},
      {"measurement": "fitness", "setting": "B. subtilis 168 [3]; first compound 0.125 µg/mL, partner 0.125 µg/mL", "value": 0.481},
      {"measurement": "fitness", "setting": "B. subtilis 168 [3]; first compound 0.125 µg/mL, partner 0.2 µg/mL, one replicate", "value": 0.51},
      {"measurement": "fitness", "setting": "B. subtilis 168 [3]; first compound 0.125 µg/mL, partner 0.4 µg/mL, one replicate", "value": 0.458},
      {"measurement": "fitness", "setting": "B. subtilis 168 [3]; first compound 0.125 µg/mL, partner 1 µg/mL, one replicate", "value": 0.338},
      {"measurement": "fitness", "setting": "B. subtilis 168 [3]; first compound 0.125 µg/mL, partner 2 µg/mL, one replicate", "value": 0.252},
      {"measurement": "fitness", "setting": "B. subtilis 168 [3]; first compound 0.25 µg/mL, partner 0.1 µg/mL, one replicate", "value": 0.224},
      {"measurement": "fitness", "setting": "B. subtilis 168 [3]; [5]", "value": 0.178},
      {"measurement": "fitness", "setting": "B. subtilis 168 [3]; first compound 0.25 µg/mL, partner 0.2 µg/mL, one replicate", "value": 0.137},
      {"measurement": "fitness", "setting": "B. subtilis 168 [3]; [6]", "value": 0.239},
      {"measurement": "fitness", "setting": "B. subtilis 168 [3]; first compound 0.25 µg/mL, partner 0.4 µg/mL, one replicate", "value": 0.0855},
      {"measurement": "fitness", "setting": "B. subtilis 168 [3]; [7]", "value": 0.149},
      {"measurement": "fitness", "setting": "B. subtilis 168 [3]; first compound 0.25 µg/mL, partner 1 µg/mL, one replicate", "value": 0.0539},
      {"measurement": "fitness", "setting": "B. subtilis 168 [3]; first compound 0.25 µg/mL, partner 2 µg/mL, one replicate", "value": 0.0332},
      {"measurement": "fitness", "setting": "B. subtilis 168 [3]; first compound 0.5 µg/mL, partner 0.1 µg/mL, one replicate", "value": 0.0326},
      {"measurement": "fitness", "setting": "B. subtilis 168 [3]; first compound 0.5 µg/mL, partner 0.125 µg/mL, one replicate", "value": 0.0335},
      {"measurement": "fitness", "setting": "B. subtilis 168 [3]; first compound 0.5 µg/mL, partner 0.2 µg/mL, one replicate", "value": 0.0707},
      {"measurement": "fitness", "setting": "B. subtilis 168 [3]; [8]", "value": 0.0539},
      {"measurement": "fitness", "setting": "B. subtilis 168 [3]; first compound 0.5 µg/mL, partner 0.4 µg/mL, one replicate", "value": 0.034},
      {"measurement": "fitness", "setting": "B. subtilis 168 [3]; [9]", "value": 0.0519},
      {"measurement": "fitness", "setting": "B. subtilis 168 [3]; first compound 0.5 µg/mL, partner 1 µg/mL, one replicate", "value": 0.0459},
      {"measurement": "fitness", "setting": "B. subtilis 168 [3]; first compound 0.5 µg/mL, partner 2 µg/mL, one replicate", "value": 0.0328},
      {"measurement": "fitness", "setting": "S. aureus DSM 20231 [4]; first compound 0.125 µg/mL, partner 0.125 µg/mL, one replicate", "value": 0.693},
      {"measurement": "fitness", "setting": "S. aureus DSM 20231 [4]; first compound 0.125 µg/mL, partner 0.25 µg/mL", "value": 0.7},
      {"measurement": "fitness", "setting": "S. aureus DSM 20231 [4]; first compound 0.125 µg/mL, partner 0.5 µg/mL", "value": 0.54},
      {"measurement": "fitness", "setting": "S. aureus DSM 20231 [4]; first compound 0.125 µg/mL, partner 1 µg/mL", "value": 0.0522},
      {"measurement": "fitness", "setting": "S. aureus DSM 20231 [4]; [5]", "value": 0.511},
      {"measurement": "fitness", "setting": "S. aureus DSM 20231 [4]; [6]", "value": 0.566},
      {"measurement": "fitness", "setting": "S. aureus DSM 20231 [4]; [7]", "value": 0.462},
      {"measurement": "fitness", "setting": "S. aureus DSM 20231 [4]; first compound 0.25 µg/mL, partner 1 µg/mL", "value": 0.118},
      {"measurement": "fitness", "setting": "S. aureus DSM 20231 [4]; first compound 0.5 µg/mL, partner 0.125 µg/mL", "value": 0.157},
      {"measurement": "fitness", "setting": "S. aureus DSM 20231 [4]; [8]", "value": 0.153},
      {"measurement": "fitness", "setting": "S. aureus DSM 20231 [4]; [9]", "value": 0.139},
      {"measurement": "fitness", "setting": "S. aureus DSM 20231 [4]; first compound 0.5 µg/mL, partner 1 µg/mL", "value": 0.115},
      {"measurement": "fitness", "setting": "S. aureus DSM 20231 [4]; first compound 1 µg/mL, partner 0.125 µg/mL, one replicate", "value": 0.0426},
      {"measurement": "fitness", "setting": "S. aureus DSM 20231 [4]; first compound 1 µg/mL, partner 0.25 µg/mL, one replicate", "value": 0.0292},
      {"measurement": "fitness", "setting": "S. aureus DSM 20231 [4]; first compound 1 µg/mL, partner 0.5 µg/mL, one replicate", "value": 0.0293}
    ]}
  ]
}
